Laboratory results taken from ChEMBL document CHEMBL4219088, “Novel 4-aminoquinazoline derivatives induce growth inhibition, cell cycle arrest and apoptosis via PI3Kα inhibition” (Bioorg Med Chem, 2018).
Calls of active or inactive are those of the source. The rule behind the calls is not given here.

Tests used:
[1] = biological target: Phosphatidylinositol 4,5-bisphosphate 3-kinase catalytic subunit alpha isoform (Homo sapiens) (UniProt P42336); test: Inhibition of PI3Kalpha in human HCT116 cells assessed as reduction in Akt phosphorylation at Ser473 residues after 24 hrs by Western blot analysis; type: cell-based
Sequence of Phosphatidylinositol 4,5-bisphosphate 3-kinase catalytic subunit alpha isoform (Homo sapiens) (P42336 whole entry, canonical isoform): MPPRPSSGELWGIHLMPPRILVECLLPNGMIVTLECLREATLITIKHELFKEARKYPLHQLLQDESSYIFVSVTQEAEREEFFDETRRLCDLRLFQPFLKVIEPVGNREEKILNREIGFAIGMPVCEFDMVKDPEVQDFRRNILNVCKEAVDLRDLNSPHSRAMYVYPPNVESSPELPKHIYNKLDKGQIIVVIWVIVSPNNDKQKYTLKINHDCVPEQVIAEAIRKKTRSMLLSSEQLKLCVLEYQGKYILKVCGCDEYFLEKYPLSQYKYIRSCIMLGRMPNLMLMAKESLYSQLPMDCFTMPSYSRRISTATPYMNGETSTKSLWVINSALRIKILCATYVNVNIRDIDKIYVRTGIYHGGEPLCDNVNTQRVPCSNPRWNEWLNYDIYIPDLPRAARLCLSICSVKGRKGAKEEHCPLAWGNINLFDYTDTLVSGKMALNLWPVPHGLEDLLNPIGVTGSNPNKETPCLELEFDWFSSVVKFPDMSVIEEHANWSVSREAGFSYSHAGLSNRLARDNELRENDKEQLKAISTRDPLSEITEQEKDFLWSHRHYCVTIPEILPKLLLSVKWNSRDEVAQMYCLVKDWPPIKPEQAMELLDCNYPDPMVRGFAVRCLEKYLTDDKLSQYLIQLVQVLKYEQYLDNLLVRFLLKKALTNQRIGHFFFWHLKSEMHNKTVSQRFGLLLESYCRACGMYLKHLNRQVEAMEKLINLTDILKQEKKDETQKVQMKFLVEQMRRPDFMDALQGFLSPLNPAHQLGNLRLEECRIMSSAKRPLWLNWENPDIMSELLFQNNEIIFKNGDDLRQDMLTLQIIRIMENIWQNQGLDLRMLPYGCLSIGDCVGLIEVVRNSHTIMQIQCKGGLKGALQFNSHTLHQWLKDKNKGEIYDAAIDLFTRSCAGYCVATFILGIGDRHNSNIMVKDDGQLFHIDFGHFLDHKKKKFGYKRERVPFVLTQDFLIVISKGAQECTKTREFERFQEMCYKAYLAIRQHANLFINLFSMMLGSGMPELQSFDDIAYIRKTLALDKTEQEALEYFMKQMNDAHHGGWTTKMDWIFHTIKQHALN

[2] = test system: HCT-116; test: Induction of apoptosis in human HCT116 cells assessed as viable cells at 1 uM after 48 hrs by Annexin V-FITC/propidium iodide staining based flow cytometry (reference value: 94.06%); type: functional; conditions: HCT-116, 48 h, read-out: Activity
[3] = test system: A549; test: Antiproliferative activity against human A549 cells after 72 hrs by sulforhodamine B assay; type: functional, cell-based; conditions: A549, 72 h
[4] = test system: HCT-116; test: Cell cycle arrest in human HCT116 cells assessed as accumulation at subG1 phase at 0.5 uM after 24 hrs by propidium iodide staining based flow cytometry (reference value: 2.25%); type: functional
[5] = test system: HCT-116; test: Induction of apoptosis in human HCT116 cells assessed as increase in cleaved PARP level at 4 uM after 48 hrs by Western blot analysis; type: functional, cell-based
[6] = test system: HCT-116; test: Cell cycle arrest in human HCT116 cells assessed as accumulation at S phase at 0.5 uM after 24 hrs by propidium iodide staining based flow cytometry (reference value: 11.36%); type: functional
[7] = test system: MRC5; test: Antiproliferative activity against human MRC5 cells after 72 hrs by sulforhodamine B assay; type: cell-based; conditions: MRC5, 72 h
[8] = test system: HCT-116; test: Induction of apoptosis in human HCT116 cells assessed as early apoptotic cells at 4 uM after 48 hrs by Annexin V-FITC/propidium iodide staining based flow cytometry (reference value: 3.72%); type: functional
[9] = test system: HCT-116; test: Induction of apoptosis in human HCT116 cells assessed as late apoptotic cells at 2 uM after 48 hrs by Annexin V-FITC/propidium iodide staining based flow cytometry (reference value: 1.43%); type: functional
[10] = biological target: Phosphatidylinositol 4,5-bisphosphate 3-kinase catalytic subunit alpha isoform (Homo sapiens) (UniProt P42336); test: Inhibition of PI3Kalpha in human HCT116 cells assessed as reduction in GSK3beta phosphorylation at 0.5 to 2 uM after 24 hrs by Western blot analysis; type: cell-based
[11] = test system: SK-HEP1; test: Antiproliferative activity against human SKHEP1 cells after 72 hrs by sulforhodamine B assay; type: functional, cell-based; conditions: SK-HEP1, 72 h
[12] = test system: HCT-116; test: Cell cycle arrest in human HCT116 cells assessed as accumulation at G2/M phase at 2 uM after 24 hrs by propidium iodide staining based flow cytometry (reference value: 22.24%); type: functional
[13] = test system: HCT-116; test: Induction of apoptosis in human HCT116 cells assessed as increase in cleaved caspase 9 level at 4 uM after 48 hrs by Western blot analysis; type: functional, cell-based
[14] = test system: HCT-116; test: Cell cycle arrest in human HCT116 cells assessed as accumulation at subG1 phase at 2 uM after 24 hrs by propidium iodide staining based flow cytometry (reference value: 2.25%); type: functional
[15] = test system: HCT-116; test: Downregulation of cyclin D1 protein expression in human HCT116 cells at 0.5 to 2 uM after 24 hrs by Western blot analysis; type: functional, cell-based
[16] = test system: HCT-116; test: Induction of apoptosis in human HCT116 cells assessed as necrotic cells at 2 uM after 48 hrs by Annexin V-FITC/propidium iodide staining based flow cytometry (reference value: 0.79%); type: functional
[17] = test system: HCT-116; test: Cell cycle arrest in human HCT116 cells assessed as accumulation at G0/G1 phase at 1 uM after 24 hrs by propidium iodide staining based flow cytometry (reference value: 44.01%); type: functional
[18] = test system: MCF7; test: Antiproliferative activity against human MCF7 cells after 72 hrs by sulforhodamine B assay; type: functional, cell-based; conditions: MCF7, 72 h
[19] = test system: HCT-116; test: Cell cycle arrest in human HCT116 cells assessed as accumulation at G2/M phase at 0.5 uM after 24 hrs by propidium iodide staining based flow cytometry (reference value: 22.24%); type: functional
[20] = test system: SNU-638; test: Antiproliferative activity against human SNU638 cells after 72 hrs by sulforhodamine B assay; type: functional, cell-based; conditions: SNU-638, 72 h
[21] = test system: HCT-116; test: Induction of apoptosis in human HCT116 cells assessed as early apoptotic cells at 1 uM after 48 hrs by Annexin V-FITC/propidium iodide staining based flow cytometry (reference value: 3.72%); type: functional
[22] = test system: HCT-116; test: Induction of apoptosis in human HCT116 cells assessed as viable cells at 4 uM after 48 hrs by Annexin V-FITC/propidium iodide staining based flow cytometry (reference value: 94.06%); type: functional; conditions: HCT-116, 48 h, read-out: Activity
[23] = test system: HCT-116; test: Cell cycle arrest in human HCT116 cells assessed as accumulation at S phase at 2 uM after 24 hrs by propidium iodide staining based flow cytometry (reference value: 11.36%); type: functional
[24] = test system: HCT-116; test: Cell cycle arrest in human HCT116 cells assessed as accumulation at subG1 phase at 1 uM after 24 hrs by propidium iodide staining based flow cytometry (reference value: 2.25%); type: functional
[25] = test system: HCT-116; test: Induction of apoptosis in human HCT116 cells assessed as decrease in Bcl-2 level at 1 to 4 uM after 48 hrs by Western blot analysis; type: functional, cell-based
[26] = test system: HCT-116; test: Induction of apoptosis in human HCT116 cells assessed as increase in Bax level at 1 to 4 uM after 48 hrs by Western blot analysis; type: functional, cell-based
[27] = biological target: Phosphatidylinositol 4,5-bisphosphate 3-kinase catalytic subunit alpha isoform (Homo sapiens) (UniProt P42336); test: Inhibition of PI3Kalpha phosphorylation in human HCT116 cells at 0.5 to 2 uM after 24 hrs by Western blot analysis; type: cell-based
[28] = test system: HCT-116; test: Induction of apoptosis in human HCT116 cells assessed as necrotic cells at 1 uM after 48 hrs by Annexin V-FITC/propidium iodide staining based flow cytometry (reference value: 0.79%); type: functional
[29] = biological target: PI3-kinase p110-alpha/p85-alpha (Homo sapiens, UniProt P42336); test: Inhibition of recombinant N-terminal His6-tagged full length PI3K p110alpha (unknown origin)/recombinant untagged full length p85alpha (unknown origin) expressed in baculovirus infected Sf21 insect cells by ELISA
Sequence of PI3-kinase p110-alpha/p85-alpha (P27986 whole entry): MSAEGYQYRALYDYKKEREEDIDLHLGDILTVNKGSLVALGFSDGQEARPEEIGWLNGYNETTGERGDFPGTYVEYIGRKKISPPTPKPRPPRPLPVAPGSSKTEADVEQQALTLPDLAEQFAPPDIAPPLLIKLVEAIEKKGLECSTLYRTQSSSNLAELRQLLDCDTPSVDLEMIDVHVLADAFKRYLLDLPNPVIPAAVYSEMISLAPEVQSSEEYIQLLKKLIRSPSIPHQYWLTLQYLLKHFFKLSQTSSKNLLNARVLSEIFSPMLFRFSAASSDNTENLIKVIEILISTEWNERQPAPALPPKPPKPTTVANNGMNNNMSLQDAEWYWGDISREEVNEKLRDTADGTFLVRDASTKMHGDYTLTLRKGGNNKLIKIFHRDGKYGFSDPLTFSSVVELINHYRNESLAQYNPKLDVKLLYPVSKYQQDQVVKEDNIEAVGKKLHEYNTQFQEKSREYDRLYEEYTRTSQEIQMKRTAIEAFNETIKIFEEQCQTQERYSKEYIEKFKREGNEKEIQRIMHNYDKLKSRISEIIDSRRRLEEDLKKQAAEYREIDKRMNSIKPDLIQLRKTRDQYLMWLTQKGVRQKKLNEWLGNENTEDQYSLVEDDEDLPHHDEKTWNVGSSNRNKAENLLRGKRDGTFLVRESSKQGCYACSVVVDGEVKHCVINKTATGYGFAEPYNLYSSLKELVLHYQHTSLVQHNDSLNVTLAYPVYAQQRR
Sequence of PI3-kinase p110-alpha/p85-alpha (P42336 whole entry): as the sequence (P42336 whole entry, canonical isoform) above

[30] = test system: HCT-116; test: Induction of apoptosis in human HCT116 cells assessed as increase in cytochrome C level at 1 to 4 uM after 48 hrs by Western blot analysis; type: functional, cell-based
[31] = test system: HCT-116; test: Antiproliferative activity against human HCT116 cells after 72 hrs by sulforhodamine B assay; type: functional, cell-based; conditions: HCT-116, 72 h
[32] = biological target: Phosphatidylinositol 4,5-bisphosphate 3-kinase catalytic subunit gamma isoform (Homo sapiens, UniProt P48736); test: Inhibition of recombinant human N-terminal His6-tagged full length PI3K p120gamma expressed in baculovirus infected Sf21 insect cells by ELISA
[33] = test system: HCT-116; test: Cell cycle arrest in human HCT116 cells assessed as accumulation at G2/M phase at 1 uM after 24 hrs by propidium iodide staining based flow cytometry (reference value: 22.24%); type: functional
[34] = test system: HCT-116; test: Induction of apoptosis in human HCT116 cells assessed as early apoptotic cells at 2 uM after 48 hrs by Annexin V-FITC/propidium iodide staining based flow cytometry (reference value: 3.72%); type: functional
[35] = test system: HCT-116; test: Induction of apoptosis in human HCT116 cells assessed as increase in cleaved caspase 3 level at 4 uM after 48 hrs by Western blot analysis; type: functional, cell-based
[36] = test system: HCT-116; test: Induction of apoptosis in human HCT116 cells assessed as necrotic cells at 4 uM after 48 hrs by Annexin V-FITC/propidium iodide staining based flow cytometry (reference value: 0.79%); type: functional
[37] = test system: HCT-116; test: Cell cycle arrest in human HCT116 cells assessed as accumulation at S phase at 1 uM after 24 hrs by propidium iodide staining based flow cytometry (reference value: 11.36%); type: functional
[38] = test system: HCT-116; test: Cell cycle arrest in human HCT116 cells assessed as accumulation at G0/G1 phase at 2 uM after 24 hrs by propidium iodide staining based flow cytometry (reference value: 44.01%); type: functional
[39] = biological target: PI3K p110 beta/p85 alpha (Homo sapiens, UniProt P42338); test: Inhibition of N-terminal His6-tagged recombinant full-length PI3Kbeta (unknown origin)/untagged recombinant full length p85alpha expressed in baculovirus infected Sf21 insect cells by ELISA
Sequence of PI3K p110 beta/p85 alpha (P27986 whole entry): as the sequence (P27986 whole entry) above
Sequence of PI3K p110 beta/p85 alpha (P42338 whole entry): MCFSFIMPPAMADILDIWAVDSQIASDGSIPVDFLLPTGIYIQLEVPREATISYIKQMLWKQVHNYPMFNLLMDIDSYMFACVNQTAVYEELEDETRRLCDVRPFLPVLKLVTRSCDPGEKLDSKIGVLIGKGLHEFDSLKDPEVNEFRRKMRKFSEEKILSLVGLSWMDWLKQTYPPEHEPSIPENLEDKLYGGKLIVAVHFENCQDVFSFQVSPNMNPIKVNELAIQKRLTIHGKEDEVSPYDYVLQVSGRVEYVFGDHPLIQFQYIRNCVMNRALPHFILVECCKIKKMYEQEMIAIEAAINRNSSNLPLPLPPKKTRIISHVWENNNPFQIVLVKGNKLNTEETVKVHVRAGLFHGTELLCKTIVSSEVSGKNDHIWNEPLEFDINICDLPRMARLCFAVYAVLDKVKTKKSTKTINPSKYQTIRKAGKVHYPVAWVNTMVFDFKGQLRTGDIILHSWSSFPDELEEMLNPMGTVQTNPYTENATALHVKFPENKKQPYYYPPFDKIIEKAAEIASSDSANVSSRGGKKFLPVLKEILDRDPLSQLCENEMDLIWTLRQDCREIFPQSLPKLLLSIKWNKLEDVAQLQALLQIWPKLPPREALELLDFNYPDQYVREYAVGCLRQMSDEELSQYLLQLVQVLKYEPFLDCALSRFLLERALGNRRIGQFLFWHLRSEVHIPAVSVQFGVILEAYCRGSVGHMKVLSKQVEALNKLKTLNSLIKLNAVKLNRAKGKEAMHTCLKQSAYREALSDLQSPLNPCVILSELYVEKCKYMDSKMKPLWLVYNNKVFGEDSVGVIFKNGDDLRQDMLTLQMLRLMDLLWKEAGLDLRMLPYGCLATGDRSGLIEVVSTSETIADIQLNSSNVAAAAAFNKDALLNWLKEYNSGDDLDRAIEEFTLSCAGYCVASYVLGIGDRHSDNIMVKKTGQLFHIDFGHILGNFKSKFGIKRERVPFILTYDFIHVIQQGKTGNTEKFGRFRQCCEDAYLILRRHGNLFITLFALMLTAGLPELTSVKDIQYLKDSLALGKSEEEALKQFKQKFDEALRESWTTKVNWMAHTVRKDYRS

[40] = test system: HCT-116; test: Induction of apoptosis in human HCT116 cells assessed as late apoptotic cells at 1 uM after 48 hrs by Annexin V-FITC/propidium iodide staining based flow cytometry (reference value: 1.43%); type: functional
[41] = biological target: Phosphatidylinositol 4,5-bisphosphate 3-kinase catalytic subunit alpha isoform (Homo sapiens) (UniProt P42336); test: Inhibition of PI3Kalpha in human HCT116 cells assessed as reduction in GSK3beta phosphorylation after 24 hrs by Western blot analysis; type: cell-based
[42] = test system: HCT-116; test: Downregulation of CDK2 protein expression in human HCT116 cells at 0.5 to 2 uM after 24 hrs by Western blot analysis; type: functional, cell-based
[43] = test system: HCT-116; test: Cell cycle arrest in human HCT116 cells assessed as accumulation at G0/G1 phase at 0.5 uM after 24 hrs by propidium iodide staining based flow cytometry (reference value: 44.01%); type: functional
[44] = test system: HCT-116; test: Induction of apoptosis in human HCT116 cells assessed as viable cells at 2 uM after 48 hrs by Annexin V-FITC/propidium iodide staining based flow cytometry (reference value: 94.06%); type: functional; conditions: HCT-116, 48 h, read-out: Activity
[45] = biological target: PI3-kinase p110-delta/p85-alpha (Homo sapiens, UniProt O00329); test: Inhibition of recombinant N-terminal full length human PI3K p110delta/recombinant untagged full length human p85alpha expressed in baculovirus infected Sf21 insect cells by ELISA
Sequence of PI3-kinase p110-delta/p85-alpha (P27986 whole entry, canonical isoform): as the sequence (P27986 whole entry) above
Sequence of PI3-kinase p110-delta/p85-alpha (O00329 whole entry, canonical isoform): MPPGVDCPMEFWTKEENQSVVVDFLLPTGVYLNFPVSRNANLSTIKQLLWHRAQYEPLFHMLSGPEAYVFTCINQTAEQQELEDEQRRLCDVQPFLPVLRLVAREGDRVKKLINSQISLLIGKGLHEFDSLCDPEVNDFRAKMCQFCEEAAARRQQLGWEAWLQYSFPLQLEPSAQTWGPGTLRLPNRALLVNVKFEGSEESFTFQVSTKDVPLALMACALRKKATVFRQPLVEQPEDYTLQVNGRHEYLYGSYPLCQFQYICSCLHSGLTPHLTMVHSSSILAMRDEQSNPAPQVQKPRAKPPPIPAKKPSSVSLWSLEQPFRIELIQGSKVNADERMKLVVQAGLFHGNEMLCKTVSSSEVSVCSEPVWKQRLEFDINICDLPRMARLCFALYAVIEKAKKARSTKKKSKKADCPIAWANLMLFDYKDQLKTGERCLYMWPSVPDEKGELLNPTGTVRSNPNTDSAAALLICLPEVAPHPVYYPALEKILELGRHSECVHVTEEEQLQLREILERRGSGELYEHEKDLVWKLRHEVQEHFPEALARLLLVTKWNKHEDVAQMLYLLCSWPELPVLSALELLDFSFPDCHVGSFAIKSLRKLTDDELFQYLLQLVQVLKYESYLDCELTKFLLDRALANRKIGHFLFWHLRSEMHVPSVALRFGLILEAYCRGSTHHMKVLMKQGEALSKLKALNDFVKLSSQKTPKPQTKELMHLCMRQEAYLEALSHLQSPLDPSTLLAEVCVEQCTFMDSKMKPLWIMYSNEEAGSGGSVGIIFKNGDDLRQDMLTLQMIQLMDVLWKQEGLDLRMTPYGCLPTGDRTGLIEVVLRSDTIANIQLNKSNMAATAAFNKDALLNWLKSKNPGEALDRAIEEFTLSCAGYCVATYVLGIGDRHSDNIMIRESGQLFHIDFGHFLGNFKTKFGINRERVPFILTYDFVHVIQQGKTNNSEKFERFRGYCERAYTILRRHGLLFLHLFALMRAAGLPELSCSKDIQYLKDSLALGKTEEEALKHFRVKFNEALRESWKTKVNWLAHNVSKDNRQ

[46] = biological target: Phosphatidylinositol 4,5-bisphosphate 3-kinase catalytic subunit alpha isoform (Homo sapiens) (UniProt P42336); test: Inhibition of PI3Kalpha in human HCT116 cells assessed as reduction in Akt expression level at Ser473 residues at 1 uM after 8 hrs by DAPI staining based confocal microscopy; type: cell-based
[47] = test system: MDA-MB-231; test: Antiproliferative activity against human MDA-MB-231 cells after 72 hrs by sulforhodamine B assay; type: functional, cell-based; conditions: MDA-MB-231, 72 h
[48] = test system: HCT-116; test: Upregulation of p27 protein expression in human HCT116 cells at 0.5 to 2 uM after 24 hrs by Western blot analysis; type: functional, cell-based
[49] = biological target: Phosphatidylinositol 4,5-bisphosphate 3-kinase catalytic subunit alpha isoform (Homo sapiens) (UniProt P42336); test: Inhibition of PI3Kalpha in human HCT116 cells assessed as reduction in Akt phosphorylation at Ser473 residues at 0.5 to 2 uM after 24 hrs by Western blot analysis; type: cell-based
[50] = test system: HEK293; test: Antiproliferative activity against HEK293 cells after 72 hrs by sulforhodamine B assay; type: cell-based; conditions: Homo sapiens, HEK293, 72 h
[51] = test system: HCT-116; test: Induction of apoptosis in human HCT116 cells assessed as late apoptotic cells at 4 uM after 48 hrs by Annexin V-FITC/propidium iodide staining based flow cytometry (reference value: 1.43%); type: functional

## CCCCS(=O)(=O)Nc1cc(-c2ccc3ncnc(NCCN(C)C)c3c2)cnc1OC
[1]
  inhibition: Dose-dependent effect
[2]
  viability at 1 µM: 85.5%
[3]
  IC50: 1320 nM
[4]
  Activity: 3.57%
[5]
  Activity: Active
[6]
  Activity: 10.3%
[7]
  IC50: 18500 nM
[8]
  Activity: 11.11%
[9]
  Activity: 3.7%
[10]
  inhibition: Active
[11]
  IC50: 280 nM
[12]
  Activity: 10.99%
[13]
  Activity: Active
[14]
  Activity: 2.51%
[15]
  Activity: Active
[16]
  Activity: 1.39%
[17]
  Activity: 54.1%
[18]
  IC50: 3240 nM
[19]
  Activity: 20.53%
[20]
  IC50: 480 nM
[21]
  Activity: 10.13%
[22]
  viability at 4 µM: 83.3%
[23]
  Activity: 13.65%
[24]
  Activity: 2.91%
[25]
  Activity: Active
[26]
  Activity: Active
[27]
  inhibition: Active
[28]
  Activity: 1.5%
[29]
  IC50: 13.6 nM
[30]
  Activity: Active
[31]
  IC50: 160 nM
[32]
  IC50: 117 nM
[33]
  Activity: 15.33%
[34]
  Activity: 10.2%
[35]
  Activity: Active
[36]
  Activity: 1.02%
[37]
  Activity: 13.02%
[38]
  Activity: 61.01%
[39]
  IC50: 396 nM
[40]
  Activity: 2.89%
[41]
  inhibition: Dose-dependent effect
[42]
  Activity: Active
[43]
  Activity: 46.16%
[44]
  viability at 2 µM: 84.7%
[45]
  IC50: 102 nM
[46]
  inhibition: Active
[47]
  IC50: 280 nM
[48]
  Activity: Active
[49]
  inhibition: Active
[50]
  IC50: 12600 nM
[51]
  Activity: 4.6%

## COc1ncc(-c2ccc3ncnc(NCCN(C)C)c3c2)cc1NS(=O)(=O)c1ccc(F)cc1F
[3]
  IC50: 940 nM
[11]
  IC50: 4720 nM
[18]
  IC50: 1020 nM
[20]
  IC50: 620 nM
[31]
  IC50: 1440 nM
[47]
  IC50: 710 nM
